The record followed here is patent US20160109459A1, “Compositions And Methods For Heparan Sulfate As A Biomarker For Transplant Rejection” (Duke University, priority 2012, published 2016).

In one experiment the test system is BALB/c DCs. The experiment in a line: DC maturation: surface expression of CD40 and CD80 by FACS. Format: cell-based, mouse. To be noted: 24 h; HS 100 μg/mL, Pam3CSK4 2 μg/mL. The method, then:
FIG. 3A is a graph showing WT, TLR4^−/−, or MyD88^−/− BALB/c DCs (2×10^5/well) were stimulated with LPS (100 ng/mL), HS (100 μg/mL), or Pam3CSK4 (2 μg/mL), or left unstimulated (media) for 24 hours, and measured for surface expression of co-stimulatory molecules CD40 and CD80 by FACS analysis. FIGS. 3B and 3C are graphs showing WT, MyD88^−/−, and TLR4^−/− BALB/c cultured DCs were co-cultured with media alone, LPS, HS, or Pam3CSK4 as in (A) and culture supernatants were tested for IL-6 (B) and IL-12 (C) by ELISA. Data are representative of three independent experiments; *p<0.05 compared with media alone.
To investigate how activation of DCs by HS promoted the alloreactive T cell response, an as DC maturation and production of pro-inflammatory cytokines are key initial events in triggering adaptive immune responses, the ability of HS to upregulate DC expression of costimulatory molecules, CD40 and CD80, and pro-inflammatory cytokines, IL-6 and IL-12 was tested.
Antibodies and flow cytometry: Anti-CD40 (HM40-3), anti-CD80 (16-10A1), anti-Thy1.1 (OX-7), anti-Ly5.1 (A20) anti-IFN-γ (XMG1.2), rat IgG1 isotype (R3-34), and the BrdU Flow Kit (FITC-labeled) were from BD Biosciences (San Jose, Calif., USA). Intracellular IFN-γ staining was performed as previously described. (Brennan, T. V. et al. (2008) Transplantation 85:247-55). For in vivo BrdU labeling, mice were injected with 50 μg BrdU/gm i.p. 1 hour prior to analysis. Collection of flow cytometric data was acquired using a FACSCanto (BD Biosciences), and events were analyzed using FloJo software (Tree Star, Inc., Ashland, United States).

For experiment [1], the system named is purified T cells from C57BL/6 mice stimulated with bone marrow-derived BALB/c DCs. The experiment in a line: Allogeneic T cell proliferation assay (3H-thymidine incorporation, IFN-γ ELISA). Format: cell-based, mouse. The method, then: Cells were co-cultured either alone (media) or in the presence of LPS (100 ng/mL), Pam3CSK4 (2 μg/mL), hyaluronan (HA) (100 μg/mL), sonicated-HA (sHA) (100 μg/mL), fibronectin (FN) (100 μg/mL), fibrinogen (Fbn) (100 μg/mL), heparan sulfate (HS) (100 μg/mL), HSP70 (5 μg/mL), HMGB1 (1 μg/mL), C12-iE-DAP (1 μg/mL), or L18-MDP (1 μg/mL) for 72 hours, and then pulsed ^3H-thymidine for 16 hours. Proliferation was determined by ^3H incorporation and results are expressed as cpm±SEM. Baseline alloreactivity is indicated by the dotted line; *p<0.05 compared with media alone. […] Results are representative of three independent experiments.
T cell proliferation assay: DCs were generated from bone marrow as previously described. (Yang, Y. (2004) Nat. Immunol. 5:508-15). CD3^+ T cells were isolated from B6 mice using a CD3 negative selection magnetic bead kit (Invitrogen, Carlsbad, United States). Proliferation assays were performed as previously described. (Brennan, T. V. et al. (2008) Transplantation 85:247-55).
Purified T cells from C57BL/6 mice were stimulated with bone marrow-derived DCs from BALB/c mice and their proliferation was measured by the incorporation of ^3H-thymidine. DAMPs tested included proteins—fibronectin (FN), fibrinogen (Fbn), heat shock protein 70 (HSP70), and high-mobility group protein B1 (HMGB1); and glucosaminoglycans—heparan sulfate (HS) and hyaluronan (HA). For comparison, two well-described PAMPs, lipopolysaccharide (LPS) and a synthetic tripalmitoylated lipopeptide (Pam3CSK4) that are ligands of the TLR4 homodimer and the TLR1/2 heterodimer, respectively, were tested. As nucleotide-binding domain, leucine-rich repeat containing receptors (NLRB) are another family of innate immune receptors, ligands of NLR1 (C12-iE-DAP) and NLR2 (L18-MDP) were further tested.
Next, to investigate whether HS enhanced proliferation of allogeneic T cells was due to the stimulation of TLRs on DCs or T cells, because MyD88 is a common adaptor protein involved in the signal transduction of all TLRs with the exception of TLR3^9, HS was tested against DCs or T cells that were deficient for MyD88. For this purpose, T cells from WT or MyD88^−/− C57BL/6 mice were stimulated with DCs from WT or MyD88^−/− BALB/c mice in an allogeneic proliferation assay in the presence of HS, LPS, Pam3CSK4, or media alone.
HS has been shown as a TLR4 ligand, (Johnson, G. B. et al., (2002) J. Immunol. 168:5233-39; Johnson, G. B., Brunn, G. J. & Platt, J. L. (2004) J. Immunol. 172:20-24). To determine whether the absence of TLR4 expression on stimulating DCs would reduce HS-induced alloreactive T cell proliferation equivalent to MyD88 deficiency, purified T cells from C57BL/6 mice were co-cultured with irradiated WT, TLR4^−/−, and MyD88^−/− BALB/c DCs and proliferation was measured by the incorporation of ^3H-thymidine.
Cytokine analysis: Cell culture supernatants were obtained from DC cultures or T cell proliferation assays and assayed for IL-6, IL-12 and IFN-γ by ELISA (BD Biosciences) according to the manufacturer's standard protocols. HEK 293 supernatants were tested for human IL-8 by ELISA (BioLegend, San Diego, United States).
Allogenic heart transplants were performed between C57BL/6 donors and (BALB/c x DBA.1)F1 recipients. Serum HS was measured by ELISA Immunohistologic staining for HS and CD3 was performed on heart tx tissue. Bone marrow derived dendritic cells (DCs) and purified T cells from WT-, MyD88- or TLR4-deficient mice were used in MLR assays to test for proliferation and cytokine production in response to HS. CD40 and CD80 expression on stimulated DCs was measured by FACS. T cell proliferation was determined by ^3H-thymidine incorporation and CFSE dye dilution assay. HEK293 NF-kB-luciferase reporter cell lines stably expressing CD14, MD2, and TLR4 or TLR2 were used in assays of HS activity.

The mark [2] stands for this setting: TLR4−/− BALB/c DCs as stimulators.

With heparan sulfate [HS], the “upregulation of CD40 and CD80 on WT DCs” value in the experiment on BALB/c DCs is reported as “upregulation”. Moreover, in experiment [1], the “IFNg production in MLR assays” value was “increased”. Besides, the “alloreactive T cell proliferation with MyD88−/− DCs as stimulators” value in experiment [1] (MyD88−/− BALB/c DCs) was “abolished the enhanced proliferation”. In experiment [1] (setting [2]), the “IFN-γ production with TLR4−/− DCs” value is “not able to increase” and the “proliferation of allogeneic T cells above baseline with TLR4−/− DCs” value is given as “not able to increase”. Besides, the “alloreactive T cell proliferation compared to media alone” value in experiment [1] (WT BALB/c DCs + C57BL/6 T cells, 72 h then 3H-thymidine 16 h, HS 100 μg/mL, HSP70 5 μg/mL, C12-iE-DAP 1 μg/mL, L18-MDP 1 μg/mL) is reported as “significantly increased”.
